# According to patent US5741781A, “Mercaptoalkanoyldipeptide compounds” (Adir et Compagnie, priority 1995, dated 1998):
# Tests used:
# [1] = target: neutral endopeptidase (NEP) (Homo sapiens, UniProt P08473); experiment: Inhibitory effect in vitro on neutral endopeptidase, [3H]-D-Ala2-Leu-encephalin as substrate; assay type: biochemical; settings: in vitro
# [2] = target: peptidyldipeptidase A (ACE) (Homo sapiens, UniProt P12821); experiment: Inhibitory effect in vitro on peptidyldipeptidase A, Z-Phe-His-Leu as substrate; assay type: biochemical
# Sequence of peptidyldipeptidase A (ACE) (P12821 30-1306, species assumed): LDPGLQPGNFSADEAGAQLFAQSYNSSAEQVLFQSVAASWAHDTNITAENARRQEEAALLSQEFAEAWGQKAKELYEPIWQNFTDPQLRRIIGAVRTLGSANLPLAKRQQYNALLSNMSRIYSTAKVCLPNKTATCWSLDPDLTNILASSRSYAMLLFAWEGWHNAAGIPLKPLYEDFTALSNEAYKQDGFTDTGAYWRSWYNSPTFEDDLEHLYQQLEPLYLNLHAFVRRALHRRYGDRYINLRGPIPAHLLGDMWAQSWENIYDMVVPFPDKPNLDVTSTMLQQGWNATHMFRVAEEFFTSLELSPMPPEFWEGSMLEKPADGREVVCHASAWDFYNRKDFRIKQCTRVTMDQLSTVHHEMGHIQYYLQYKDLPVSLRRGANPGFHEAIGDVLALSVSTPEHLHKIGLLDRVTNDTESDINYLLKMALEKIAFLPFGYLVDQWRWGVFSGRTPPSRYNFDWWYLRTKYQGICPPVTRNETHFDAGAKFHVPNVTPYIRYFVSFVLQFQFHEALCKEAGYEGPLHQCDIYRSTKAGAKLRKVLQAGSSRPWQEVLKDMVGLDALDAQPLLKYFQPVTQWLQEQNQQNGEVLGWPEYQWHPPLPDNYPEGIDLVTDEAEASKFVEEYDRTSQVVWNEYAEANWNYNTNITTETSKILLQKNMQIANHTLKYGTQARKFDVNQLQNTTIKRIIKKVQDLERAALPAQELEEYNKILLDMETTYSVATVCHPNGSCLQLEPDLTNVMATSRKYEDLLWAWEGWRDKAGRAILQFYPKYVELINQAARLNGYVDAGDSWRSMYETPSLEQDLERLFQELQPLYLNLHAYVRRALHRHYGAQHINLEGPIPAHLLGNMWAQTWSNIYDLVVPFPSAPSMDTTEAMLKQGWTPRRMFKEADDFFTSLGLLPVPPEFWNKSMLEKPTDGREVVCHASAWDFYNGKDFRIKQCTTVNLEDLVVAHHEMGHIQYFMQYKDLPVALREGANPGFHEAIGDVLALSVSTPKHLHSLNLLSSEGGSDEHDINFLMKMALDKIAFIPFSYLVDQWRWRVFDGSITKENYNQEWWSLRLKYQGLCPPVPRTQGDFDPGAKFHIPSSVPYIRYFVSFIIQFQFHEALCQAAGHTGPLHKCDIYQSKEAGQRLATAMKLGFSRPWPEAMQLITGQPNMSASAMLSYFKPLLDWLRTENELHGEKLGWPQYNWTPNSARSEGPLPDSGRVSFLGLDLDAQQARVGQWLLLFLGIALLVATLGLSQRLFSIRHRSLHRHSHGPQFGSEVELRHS
# Experimental: The inhibitory properties of the compounds of the invention are measured using [^3 H]-D-Ala^2 -Leu-encephalin as substrate for neutral endopeptidase, in accordance with the protocol described by Llorens et al. (Biochem. Biophys. Res. Commun., 96, (1980), 1710 sqq), and Z-Phe-His-Leu as substrate in the case of peptidyldipeptidase A in accordance with the protocol described in Biochem. Biophys. Acta, 206, (1970), 136-142.
# Sequence of neutral endopeptidase (NEP) (P08473 whole entry, species assumed): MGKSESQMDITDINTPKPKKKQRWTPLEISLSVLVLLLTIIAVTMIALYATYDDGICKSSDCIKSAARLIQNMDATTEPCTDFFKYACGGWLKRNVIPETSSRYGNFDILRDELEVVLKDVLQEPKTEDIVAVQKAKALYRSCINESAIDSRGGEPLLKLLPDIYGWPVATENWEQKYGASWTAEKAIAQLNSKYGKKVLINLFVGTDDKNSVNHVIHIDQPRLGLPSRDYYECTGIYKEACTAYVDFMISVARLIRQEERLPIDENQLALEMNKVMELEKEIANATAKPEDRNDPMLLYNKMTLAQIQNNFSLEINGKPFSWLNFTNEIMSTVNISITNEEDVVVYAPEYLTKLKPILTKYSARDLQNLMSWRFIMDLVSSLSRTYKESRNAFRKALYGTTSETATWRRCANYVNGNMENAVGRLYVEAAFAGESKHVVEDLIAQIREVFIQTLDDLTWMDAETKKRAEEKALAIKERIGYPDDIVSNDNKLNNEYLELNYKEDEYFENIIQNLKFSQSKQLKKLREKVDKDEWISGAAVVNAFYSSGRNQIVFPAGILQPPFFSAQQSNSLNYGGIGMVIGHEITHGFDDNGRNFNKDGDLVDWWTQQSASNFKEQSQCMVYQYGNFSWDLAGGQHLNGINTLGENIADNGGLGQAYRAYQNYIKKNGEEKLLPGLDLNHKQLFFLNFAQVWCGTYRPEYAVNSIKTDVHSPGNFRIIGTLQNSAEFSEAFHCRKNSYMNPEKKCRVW
Structure (SMILES),IC50 [1] [nM],IC50 [2] [nM]
"O=C(NCC(=O)N1C(c2cccc(O)c2)CC[C@H]1C(=O)O)C(S)Cc1ccccc1 (some centres unmarked) [Example 20, N-[N-(2-Mercapto-3-phenylpropanoyl)glycyl]-5-(meta-hydroxyphenyl)proline]",2.4 ± 0.8,1.4 ± 0.7
"O=C(NCC(=O)N1C(c2ccccc2O)CC[C@H]1C(=O)O)C(S)Cc1ccc(O)cc1 (some centres unmarked) [Example 7, N-[N-[2-Mercapto-3-(para-hydroxyphenyl)propanoyl]glycyl]-5-(ortho-hydroxyphenyl)proline]",4.3 ± 0.3,0.35 ± 0.05
"O=C(NCC(=O)N1C(c2ccc(O)cc2)CC[C@H]1C(=O)O)C(S)Cc1ccc(O)cc1 (some centres unmarked) [Example 22, N-[N-[2-Mercapto-3-(para-hydroxyphenyl)propanoyl]glycyl]-5,(para-hydroxyphenyl)proline]",6 ± 1,0.45 ± 0.05
"O=C(NCC(=O)N1C(c2ccccc2O)CC[C@H]1C(=O)O)C(S)Cc1ccccc1 (some centres unmarked) [Example 5, N-[N-(2-Mercapto-3-phenylpropanoyl)glycyl]-5-(ortho-hydroxyphenyl)-proline]",1.1 ± 0.3,0.5 ± 0.1
"O=C(NCC(=O)N1C(c2ccccc2)CC[C@H]1C(=O)O)C(S)Cc1ccc(O)cc1 (some centres unmarked) [Example 10, N-[N-[2-Mercapto-3-(para-hydroxyphenyl)propanoyl]glycyl]-5-phenylproline]",3.4 ± 0.8,4.2 ± 0.4
"O=C(NCC(=O)N1C(c2ccccc2)CC[C@H]1C(=O)O)C(S)Cc1ccccc1 (some centres unmarked) [Example 3, N-[N-(2-Mercapto-3-phenylpropanoyl)glycyl]-5-phenylproline]",1.6 ± 0.3,0.55 ± 0.05
"Nc1ccc(C2CC[C@@H](C(=O)O)N2C(=O)CNC(=O)C(S)Cc2ccc(O)cc2)cc1 (some centres unmarked) [Example 16, N-[N-[2-Mercapto-3-(para-hydroxyphenyl)propanoyl]glycyl]-5-(para-aminophenyl)proline]",26 ± 3,23 ± 3
"Nc1ccc(CC(S)C(=O)NCC(=O)N2C(c3ccccc3)CC[C@H]2C(=O)O)cc1 (some centres unmarked) [Example 14, N-[N-[2-Mercapto-3-(para-aminophenyl)propanoyl]glycyl]-5-phenylproline]",1.8 ± 0.4,3.5 ± 0.5
"O=C(NCC(=O)N1C(c2cccc(O)c2)CC[C@H]1C(=O)O)C(S)Cc1ccc(O)cc1 (some centres unmarked) [Example 18, N-[N-[2-Mercapto-3-(para-hydroxyphenyl)propanoyl]glycyl]-5-(metahydroxyphenyl)proline]",1.6 ± 0.3,0.7 ± 0.2

# Results, then the compound that gave them:
IC50 [1] [nM],IC50 [2] [nM],Structure (SMILES)
2.5 ± 0.6,2.2 ± 0.2,"COc1ccc(CC(S)C(=O)NCC(=O)N2C(c3ccccc3OC)CC[C@H]2C(=O)O)cc1 (some centres unmarked) [Example 28, N-[N-[2-Mercapto-3-(para-methoxyphenyl)propanoyl]glycyl]-5-(orthomethoxyphenyl)proline]"
3.1 ± 0.3,5.2 ± 0.5,"Cc1ccccc1C1CC[C@@H](C(=O)O)N1C(=O)CNC(=O)C(S)Cc1ccc(O)cc1 (some centres unmarked) [Example 34, N-[N-[2-Mercapto-3-(para-hydroxyphenyl)propanoyl]glycyl]-5-(ortho-methylphenyl)proline]"
5 ± 0.5,3.2 ± 0.4,"Cc1ccc(C2CC[C@@H](C(=O)O)N2C(=O)CNC(=O)C(S)Cc2ccc(O)cc2)cc1 (some centres unmarked) [Example 32, N-[N-[2-Mercapto-3-(para-hydroxyphenyl)propanoyl]glycyl]-5-(para-methylphenyl)proline]"
2.3 ± 0.3,0.4 ± 0.05,"COc1ccc(CC(S)C(=O)NCC(=O)N2C(c3ccccc3O)CC[C@H]2C(=O)O)cc1 (some centres unmarked) [Example 26, N-[N-[2-Mercapto-3-(para-methoxyphenyl)propanoyl]glycyl]-5-(orthohydroxyphenyl)proline]"
10 ± 2,8.2 ± 0.5,"Cc1ccc(C2CC[C@@H](C(=O)O)N2C(=O)CNC(=O)C(S)Cc2ccccc2)cc1 (some centres unmarked) [Example 30, N-[N-(2-Mercapto-3-phenylpropanoyl)glycyl]-5-(para-methylphenyl)proline]"
1.2 ± 0.4,0.9 ± 0.06,O=C(NCC(=O)N1C(c2ccccc2O)CC[C@H]1C(=O)O)C(S)Cc1ccc(Cl)cc1 (some centres unmarked) [Example 24]
4 ± 0.6,3.5 ± 0.6,"Cc1ccccc1C1CC[C@@H](C(=O)O)N1C(=O)CNC(=O)C(S)Cc1ccccc1 (some centres unmarked) [Example 36, N-[N-(2-Mercapto-3-phenylpropanoyl)glycyl]-5-(ortho-methylphenyl)proline]"
